Assay results taken from patent US20040229837A1, “Treatment of neurodegenerative diseases” (priority 2003, published 2004).

How the values were obtained:
wild-type mice [1] = experiment: Number of activated astrocytes, wild-type mice; type: in vivo; details: chronic CGS treatment
Procedure: Single antigen immunohistochemistry was carried out by the avidin-biotin-peroxidase complex method as previously described (Liu et al. (1998) FEBS Lett. 436:92-98). In brief, free-floating sections were incubated in the polyclonal anti-GFAP antiserum (1 :1000 dilution, Sigma, St. Louis, Mo., USA) at 4° C. for 36-48 h followed by a biotinconjugated goat anti-rabbit IgG (1:500, Vector Laboratories, Burlingame, Calif., USA) for 2 h, and then with an avidin-biotin-peroxidase complex for 2 h with three rinses of 0.1 M PB in between. Sections were incubated in 0.1 M PB containing 0.02% DAB and 0.08% nickel ammonium sulfate. Immunostaining was developed by adding H2O2 to a final concentration of 0.0024%. […] The pattern of double immunostaining was analyzed with the aid of a laser confocal microscope (Bio-Rad, MRC-1000, Hercules, Calif., USA).
(§1) Serial-cut coronal tissue sections from the rostral segment of the neostriatum to the level of the anterior commissure (interaural 5.34 mm/bregma 1.54 mm to interaural 3.7 mm/bregma -0.1 mm) were used to define atrophy of the striatum and enlargement of the lateral ventricles. Total areas of the striatum or the lateral ventricles were measured using the software, NIH Image 1.62. Nissl- and GFAP-stained sections were quantified by counting the corresponding types of cells in defined areas of photomicrographs taken using a microscope in phase contrast. […]

R6/2 mice [2] = experiment: Number of glia by Nissl staining, R6/2 mice; type: in vivo; details: chronic CGS treatment
Procedure: (§2) Animals were deeply anesthetized with sodium pentobarbital (100 ug/g), and intracardially perfused with 4% paraformaldehyde in 0.1 M phosphate buffer (PB, pH 7.4). Brains were carefully removed, post-fixed with 4% paraformaldehyde/0. 1 M PB for 2-5 h, and then immersed in 30% glycerol in 0.1 M PB. Tissues were cut at 20 um on a freezing microtome (CM3050, Leica Microsystems Nussloch GmbH, Nussloch, Germany).
Serial-cut coronal tissue sections from the rostral segment of the neostriatum to the level of the anterior commissure (interaural 5.34 mm/bregma 1.54 mm to interaural 3.7 mm/bregma -0.1 mm) were used to define atrophy of the striatum and enlargement of the lateral ventricles. Total areas of the striatum or the lateral ventricles were measured using the software, NIH Image 1.62. Nissl- and GFAP-stained sections were quantified by counting the corresponding types of cells in defined areas of photomicrographs taken using a microscope in phase contrast.
Alternatively, elevated choline content may reflect a change in cell types. […] The number of glia was determined using the Nissl staining technique. […] The number of astrocytes, the most numerous of glial cells, was also assessed by staining the brain sections using an antibody against an astrocytic marker (glial fibrillary acidic protein, GFAP). […]

wild-type mice [3] = experiment: Choline/creatine levels after chronic CGS, wild-type mice; type: in vivo; details: chronic IP-administration of CGS
Procedure: Animals were anesthetized using chloral hydrate (4.088 mg/10 g, i.p. injection). Measurements were performed on a Biospec 4.7 T spectrometer with an active shielding gradient at 6.9 G/cm in 500 us. Mice were placed in a prone position with a custom-designed head-holder. A 20-cm birdcage coil was used for RF excitation, and a 2-cm-diameter surface coil placed directly over the head was used for signal receiving. The volume of interest (VOI) for ^1H-MRS measurements over the striatum was selected on the basis of coronal diffusion-weighted image using a pulse gradient spin-echo diffusion method with a repetition time (TR) of 1500 ms, an echo time (TE) of 62 ms, a field of view of 3 cm×3 cm, a slice thickness of 1 mm, a b value of 1300 s/mm^2, number averages of 2, a 256 -128 matrix size zero filled to 256 -156. The diffusion-sensitive gradients were applied in the read (×) direction before and after the refocusing pulse. Point-resolved spectroscopy (PRESS) sequence, preceded by three consecutive chemical shift selective saturation (CHESS) pulses for water suppression, was used for localized spectroscopy with a 3.5 ×3.5 ×3.5 mm^3voxel located in the striatum region, a spectral width (sw) of 4000 Hz, a TR of 3.5 s, a TE of 136 ms, signal averages of 256, and total scanning time of 8 min 32 sec. The peak areas of NAA, choline (Cho), and creatine (Cr), were recognized. […]

R6/2 mice [4] = experiment: Number of activated (GFAP-positive) astrocytes by immunohistochemistry, R6/2 mice; type: in vivo
Procedure: as §2
Single antigen immunohistochemistry was carried out by the avidin-biotin-peroxidase complex method as previously described (Liu et al. (1998) FEBS Lett. 436:92-98). […] The pattern of double immunostaining was analyzed with the aid of a laser confocal microscope (Bio-Rad, MRC-1000, Hercules, Calif., USA).
as §1

R6/2 mice [5] = experiment: Motor coordination assessed by rotarod performance of R6/2 mice; type: in vivo; details: CGS treatment
rats = details: low dosage, Popoli et al. (2002); cited from earlier work
R6/2 mice [6] = experiment: Locomotor activity of R6/2 mice; type: in vivo; details: ZM241385 7.5 ug/g given with CGS

With `CCNC(=O)[C@H]1O[C@@H](n2cnc3c(N)nc(NCCc4ccc(CCC(=O)O)cc4)nc32)[C@H](O)[C@@H]1O` [CGS] the “number of activated astrocytes” value (wild-type mice [1]) was “not affected”, the “number of glial cells” value (R6/2 mice [2]) was “did not affect” and the “changes in choline/creatine levels” value (wild-type mice [3]) was “no detectable changes”. For the same compound, the “enhancement of the number of activated astrocytes” value (R6/2 mice [4]; R6/2 mice, chronic CGS treatment, in the striatum and in the cortex) was 8 fold and the “motor coordination assessed by rotarod performance” value (R6/2 mice [5]) was “not affected”.

For `Nc1nc2c(cnn2CCc2ccccc2)c2nc(-c3ccco3)nn12` [SCH58261], the QA-induced excitotoxicity (rats) is listed as “reduced QA-induced excitotoxicity”.

In the case of `Nc1nc(NCCc2ccc(O)cc2)nc2nc(-c3ccco3)nn12` [ZM241385], the “ameliorating effect of CGS on locomotor activity, blockade by antagonist” value (R6/2 mice [6]) is reported as “could be blocked” and the “number of activated astrocytes in the striatum” value (R6/2 mice [4]; R6/2 mice treated with ZM and CGS simultaneously, n=4) is reported as 43±8 /mm^2.
